We go through 29 compounds from patent US20260166039A1 (SCHRÖDINGER, INC., priority 2022, published 2026).

Bounds are passed on as bounds.

The term IC50 denotes the concentration at which inhibition is half-maximal.

One assay deals with T1, Wee1 kinase domain (Homo sapiens, UniProt P30291).
T1 construct: Wee1 kinase domain was purchased from Carna (catalog #05-177); purchased Carna 05-177
T1 sequence (P30291 299-569 limits assumed): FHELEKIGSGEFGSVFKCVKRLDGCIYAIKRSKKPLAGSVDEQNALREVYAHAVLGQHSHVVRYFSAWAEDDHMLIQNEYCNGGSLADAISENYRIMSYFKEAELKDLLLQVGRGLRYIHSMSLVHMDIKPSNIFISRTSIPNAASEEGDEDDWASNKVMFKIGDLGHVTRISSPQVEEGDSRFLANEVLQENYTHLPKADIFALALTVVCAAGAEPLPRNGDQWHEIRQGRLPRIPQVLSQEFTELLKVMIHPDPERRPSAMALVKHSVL
The assay is described as follows: Wee1 Kinase Biochemical Assay (ADP-Glo). As to conditions: 1 nM Wee1 enzyme, 15 uM ATP, 4 hours at 25° C. Summed up:
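Carna Wee1 kinase domain at 1 nM, with 15 uM ATP and 2 ng/mL poly(Lys,Tyr 4:1) substrate in 40 mM Tris-HCl, 20 mM MgCl2, 0.1 mg/mL BSA, 2 mM DTT, run 4 h at 25° C. ADP formation read by ADP-Glo luminescence. Percent inhibition normalised to DMSO and saturating-inhibitor controls.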
Background: ADP-Glo turns the ADP formed in a reaction into a luminescent signal.
In the case of `CC1(C)C[C@H]2N(c3cccc(N=S(C)(C)=O)n3)c3nc(Nc4cncnc4)ncc3[C@@]2(C)CO1` (single isomer, unassigned) [Example 817], the IC50 was under 0.01 µM.

Take `CN1C[C@@H]2C[C@H]1CN2c1ccc(Nc2ncc3c(n2)N(c2cccc(C(F)F)n2)[C@@H]2CC(C)(C)OC[C@]32C)cc1` [Example 813, (4bR,8aR)-9-(6-(difluoromethyl)pyridin-2-yl)-4b,7,7-trimethyl-N-(4-((1S,4S)-5-methyl-2,5-diazabicyclo[2.2.1]heptan-2-yl)phenyl)-4b,5,7,8,8a,9-hexahydropyrano[3′,4′:4,5]pyrrolo[2,3-d]pyrimidin-2-amine]: the IC50 was under 0.01 µM.

The same assay, now with this note: Wee1 kinase domain, 15 uM ATP, ADP-Glo.
In the case of `CNCc1cccc(N2c3nc(NC45CC(C4)C5)ncc3[C@@]3(C)COC(C)(C)C[C@@H]23)n1` [Example 89, (4bR,8aR)-N-(bicyclo[1.1.1]pentan-1-yl)-4b,7,7-trimethyl-9-(6-((methylamino)methyl)pyridin-2-yl)-4b,5,7,8,8a,9-hexahydropyrano[3′,4′:4,5]pyrrolo[2,3-d]pyrimidin-2-amine], the IC50 is at least 1 µM.

`CN1CCC[C@H]1c1ccc(Nc2ncc3c(n2)N(c2cccc(N=S(C)(C)=O)n2)[C@H]2CC(C)(C)OC[C@@]32C)cc1` (single isomer, unassigned) [Example 125] registered an IC50 of 0.01 to 0.1 µM.

In turn, `CN1C[C@@H]2C[C@H]1CN2c1ccc(Nc2ncc3c(n2)N(c2cccc(N=S(C)(C)=O)n2)[C@H]2CC(C)(C)OC[C@@]32C)cc1` (single isomer, unassigned) [Example 123] returned an IC50 of 0.1 to 1 µM.

In turn, `CNCc1cccc(N2c3nc(Nc4ccc([C@@H]5CCC(=O)N5C)nc4)ncc3[C@]3(C)COC(C)(C)C[C@H]23)n1` (single isomer, unassigned) [Example 95] gave a half-inhibitory concentration (IC50) of at least 1 µM.

Turning to `CC1(C)C[C@H]2N(c3cccc([C@@H]4CCCN4)n3)c3nc(Nc4ccn(C5CCOCC5)c(=O)c4)ncc3[C@@]2(C)CO1` (single isomer, unassigned) [Example 392], the IC50 is under 0.01 µM.

As to `CNCc1cccc(N2c3nc(Nc4ccc(S(C)(=O)=O)cc4)ncc3[C@]3(C)COC(C)(C)C[C@H]23)n1` (single isomer, unassigned) [Example 33], the IC50 was 0.1 to 1 µM.

In turn, `CNCc1cccc(N2c3nc(Nc4ccc(N5CCCOCC5)cc4)ncc3[C@]3(C)COC(C)(C)C[C@H]23)n1` (single isomer, unassigned) [Example 17] had a half-inhibitory concentration (IC50) of 0.1 to 1 µM.

The compound `C[C@H]1COC(=O)N1c1cccc(N2c3nc(Nc4ccc(C5CCN(C)CC5)cc4)ncc3[C@]3(C)COC(C)(C)C[C@H]23)n1` (single isomer, unassigned) [Example 250] registered an IC50 of 0.01 to 0.1 µM.

In turn, `CC1(C)C[C@H]2N(c3cccc(N=S(C)(C)=O)n3)c3nc(Nc4ccc5cnoc5c4)ncc3[C@@]2(C)CO1` (single isomer, unassigned) [Example 381] showed an IC50 of under 0.01 µM.

Compound `CNCc1cccc(N2c3nc(Nc4ccc(N5CCN(C)CC5)cc4)ncc3[C@]3(C)COC(C)(C)C[C@H]23)n1` (single isomer, unassigned) [Example 93] gave an IC50 of 0.01 to 0.1 µM.

`CN1CC(c2ccc(Nc3ncc4c(n3)N(c3cccc(N=S(C)(C)=O)n3)[C@H]3CC(C)(C)OC[C@@]43C)cc2)C1` (single isomer, unassigned) [Example 166] registered an IC50 of 0.01 to 0.1 µM.

The assay is the same for the next values; noted with them: class symbols; 1 nM Wee1 enzyme, 15 uM ATP, 4 hours at 25° C.
`CC1(C)C[C@@H]2N(c3cccc(N4CCOC4=O)n3)c3nc(Nc4ccc(O[C@@H]5CCNC5)cc4)ncc3[C@]2(C)CO1` [Example 623, 3-(6-((4bS,8aS)-4b,7,7-trimethyl-2-((4-(((R)-pyrrolidin-3-yl)oxy)phenyl)amino)-4b,7,8,8a-tetrahydropyrano[3′,4′:4,5]pyrrolo[2,3-d]pyrimidin-9(5H)-yl)pyridin-2-yl)oxazolidin-2-one] gave an IC50 of 0.01 to 0.1 µM.

`CNCc1cccc(N2c3nc(NC(=O)[C@H]4C[C@@H]4c4cccnc4)ncc3[C@@]3(C)COC(C)(C)C[C@@H]23)n1` [Example 769, (1S,2S)-2-(pyridin-3-yl)-N-((4bR,8aR)-4b,7,7-trimethyl-9-(6-((methylamino)methyl)pyridin-2-yl)-4b,5,7,8,8a,9-hexahydropyrano[3′,4′:4,5]pyrrolo[2,3-d]pyrimidin-2-yl)cyclopropane-1-carboxamide] displayed an IC50 of 0.1 to 1 µM.

For the compound `CC1(C)C[C@@H]2N(c3cccc([C@@H]4CNCCO4)n3)c3nc(Nc4ccc(N5CCOCC5)cc4)ncc3[C@]2(C)CO1` [Example 736, (4bS,8aS)-4b,7,7-trimethyl-9-(6-((S)-morpholin-2-yl)pyridin-2-yl)-N-(4-morpholinophenyl)-4b,5,7,8,8a,9-hexahydropyrano[3′,4′:4,5]pyrrolo[2,3-d]pyrimidin-2-amine], the IC50 is 0.1 to 1 µM.

`Cc1cc(Nc2ncc3c(n2)N(c2cccc(N4CCOC4=O)n2)[C@H]2CC(C)(C)OC[C@@]32C)ccc1N1C[C@H]2C[C@@H]1CN2C` [Example 661, 3-(6-((4bS,8aS)-4b,7,7-trimethyl-2-((3-methyl-4-((1R,4R)-5-methyl-2,5-diazabicyclo[2.2.1]heptan-2-yl)phenyl)amino)-4b,7,8,8a-tetrahydropyrano[3′,4′:4,5]pyrrolo[2,3-d]pyrimidin-9(5H)-yl)pyridin-2-yl)oxazolidin-2-one] returned an IC50 of 0.01 to 0.1 µM.

The compound `CC1(C)C[C@@H]2N(c3cccc([C@@H]4CCCN4)n3)c3nc(Nc4ccc(N5CCOCC5)cc4)ncc3[C@]2(C)CO1` (single isomer, unassigned) [Example 525] displayed an IC50 of 0.1 to 1 µM.

In turn, `CN1CC[C@@H]2CN(c3ccc(Nc4ncc5c(n4)N(c4cccc(N6CCCC6=O)n4)[C@H]4CC(C)(C)OC[C@@]54C)cc3)C[C@@H]21` [Example 687, 1-(6-((4bS,8aS)-4b,7,7-trimethyl-2-((4-((3aR,6aR)-1-methylhexahydropyrrolo[3,4-b]pyrrol-5(1H)-yl)phenyl)amino)-4b,7,8,8a-tetrahydropyrano[3′,4′:4,5]pyrrolo[2,3-d]pyrimidin-9(5H)-yl)pyridin-2-yl)pyrrolidin-2-one] registered an IC50 of 0.1 to 1 µM.

Turning to `CN1CC[C@@H](Oc2ccc(Nc3ncc4c(n3)N(c3cccc(N5CCOC5=O)n3)[C@H]3CC(C)(C)OC[C@@]43C)cc2)C1` [Example 625, 3-(6-((4bS,8aS)-4b,7,7-trimethyl-2-((4-(((R)-1-methylpyrrolidin-3-yl)oxy)phenyl)amino)-4b,7,8,8a-tetrahydropyrano[3′,4′:4,5]pyrrolo[2,3-d]pyrimidin-9(5H)-yl)pyridin-2-yl)oxazolidin-2-one], the IC50 is 0.01 to 0.1 µM.

Compound `CC1(C)C[C@H]2N(c3cccc(N=S(C)(C)=O)n3)c3nc(NC(=O)c4ccccc4F)ncc3[C@@]2(C)CO1` (single isomer, unassigned) [Example 409] displayed an IC50 of 0.1 to 1 µM.

`C[C@H]1CCC(=O)N1c1cccc(N2c3nc(Nc4ccc(N5C[C@@H]6C[C@H]5CN6C)cc4)ncc3[C@]3(C)COC(C)(C)C[C@H]23)n1` [Example 650, (S)-5-methyl-1-(6-((4bS,8aS)-4b,7,7-trimethyl-2-((4-((1S,4S)-5-methyl-2,5-diazabicyclo[2.2.1]heptan-2-yl)phenyl)amino)-4b,7,8,8a-tetrahydropyrano[3′,4′:4,5]pyrrolo[2,3-d]pyrimidin-9(5H)-yl)pyridin-2-yl)pyrrolidin-2-one]: the IC50 was in the range of 0.01 to 0.1 µM.

In turn, `CC1(C)C[C@@H]2N(c3cccc(N4CCOC4=O)n3)c3nc(Nc4ccc([C@H]5CNCC5(F)F)cc4)ncc3[C@]2(C)CO1` [Example 683, 3-(6-((4bS,8aS)-2-((4-((S)-4,4-difluoropyrrolidin-3-yl)phenyl)amino)-4b,7,7-trimethyl-4b,7,8,8a-tetrahydropyrano[3′,4′:4,5]pyrrolo[2,3-d]pyrimidin-9(5H)-yl)pyridin-2-yl)oxazolidin-2-one] came in with a concentration for half-maximal inhibition (IC50) of 0.1 to 1 µM.

`CN[C@@]1(C)CCc2ccc(N3c4nc(Nc5ccc(N6CCOCC6)cc5)ncc4[C@@]4(C)COC(C)(C)C[C@@H]34)nc21` (single isomer, unassigned) [Example 571] returned an IC50 of under 0.01 µM.

Regarding `CN1C[C@H]2C[C@@H]1CN2c1ccc(Nc2ncc3c(n2)N(c2cccc(N4CCOC4=O)n2)[C@H]2CC(C)(C)OC[C@@]32C)cc1` (single isomer, unassigned) [Example 592], the IC50 was in the range of 0.01 to 0.1 µM.

Turning to `CC1(C)C[C@H]2N(c3cccc([C@@H]4CNCCO4)n3)c3nc(Nc4ccc(N5CCOCC5)cc4)ncc3[C@@]2(C)CO1` [Example 735, (4bR,8aR)-4b,7,7-trimethyl-9-(6-((S)-morpholin-2-yl)pyridin-2-yl)-N-(4-morpholinophenyl)-4b,5,7,8,8a,9-hexahydropyrano[3′,4′:4,5]pyrrolo[2,3-d]pyrimidin-2-amine], the IC50 lay within 0.01 to 0.1 µM.

With `CN1C[C@@H]2C[C@H]1CN2c1ccc(Nc2ncc3c(n2)N(c2cccc(N4C(=O)OCC4(C)C)n2)[C@@H]2CC(C)(C)OC[C@]32C)cc1` [Example 796, 4,4-dimethyl-3-(6-((4bR,8aR)-4b,7,7-trimethyl-2-((4-((1S,4S)-5-methyl-2,5-diazabicyclo[2.2.1]heptan-2-yl)phenyl)amino)-4b,7,8,8a-tetrahydropyrano[3′,4′:4,5]pyrrolo[2,3-d]pyrimidin-9(5H)-yl)pyridin-2-yl)oxazolidin-2-one], the IC50 is under 0.01 µM.

Consider `CC1(C)CC2N(c3cccc([C@@H]4COCCN4)n3)c3nc(Nc4ccc(N5CCOCC5)cc4)ncc3C2(C)CO1` (stereo in doubt) [Example 733, (4bS,8aS)-4b,7,7-trimethyl-9-(6-((R)-morpholin-3-yl)pyridin-2-yl)-N-(4-morpholinophenyl)-4b,5,7,8,8a,9-hexahydropyrano[3′,4′:4,5]pyrrolo[2,3-d]pyrimidin-2-amine], for which the IC50 was in the range of 0.01 to 0.1 µM.

As to `CN1CC[C@H](OC(=O)Nc2ncc3c(n2)N(c2cccc(N=S(C)(C)=O)n2)[C@@H]2CC(C)(C)OC[C@]32C)C1` (single isomer, unassigned) [Example 773], the half-maximal inhibitory concentration (IC50) lay within 0.01 to 0.1 µM.
